Earlier results on 1 compound are cited in patent publication US12636273B2, “Compositions for pathogenesis-directed therapy and treatments of skin diseases and disorders” (YALE UNIVERSITY, priority 2019, dated 2026).

This series relates to CHILD syndrome skin lesions. The settings on record: topical application.

In the case of `CC(C)CCC[C@@H](C)[C@H]1CC[C@H]2[C@@H]3CC=C4C[C@@H](O)CC[C@]4(C)[C@H]3CC[C@]12C` [cholesterol], the “effect on skin lesions / phenotype” value is given as “did not correct the phenotype”.
